Data reported in patent publication US9801901B2, “Alginate oligomers for use in overcoming multidrug resistance in bacteria” (priority 2009, dated 2017).
≈ marks a conversion by molar mass, not a printed value. Like-named read-outs stand apart in the source and are kept apart here. Marks after values point to notes of the source that are not given here.

Assays:
[1] = tested on: PA01 Pseudomonas aeruginosa ATCC 15692; experiment: MIC assay, two-fold antibiotic dilutions in CAMHB with alginate oligomer, no visible growth; type: cell-based; conditions: Pseudomonas aeruginosa, read-out: MIC
[2] = tested on: V5 AIM-1 E. coli; experiment: MIC assay, CAMHB with alginate oligomer, no visible growth; type: cell-based; conditions: Escherichia coli, Table 4, V5 MDR E. coli
Description: (§1) The study described in Example 1 was repeated with the following strains of bacteria and antibiotics as detailed in Tables 4, 5 and 6.

[3] = tested on: Acinetobacter baumannii MDR ACB from Libya (V4); experiment: as above; type: cell-based; conditions: Acinetobacter baumannii, read-out: MIC
Description: as §1
(§2) The study described in Example 1 was repeated with the following strains of Acinetobacter baumannii, antibiotics and M-block alginate oligomer in place of OligoG CF-5/20 as detailed in Table 7. The M-block oligomer is 100% M with a DPn of 15 to 18,

[4] = tested on: V10 (Egypt) Acinetobacter lwoffii; experiment: as above; type: cell-based; conditions: Table 5, V10 MDR Acin. lwoff
[5] = tested on: V11 5702 (Wales) E. coli; experiment: as above; type: cell-based; conditions: Table 5, V11 MDR E.coli
[6] = tested on: V23 1322 Burkholderia cepacia; experiment: as above; type: cell-based
[7] = tested on: Pseudomonas aeruginosa (MDR 301, PSA, V2); experiment: MIC-assay, Mueller-Hinton broth with G-block alginate, 384-well, OD600; conditions: Table 8, V2
[8] = tested on: Acinetobacter lwoffii (6056, V22); experiment: as above
[9] = tested on: Acinetobacter baumannii (Egypt, V9); experiment: as above
[10] = tested on: Acinetobacter lwoffii (Egypt, V10); experiment: as above
[11] = tested on: Klebsiella pneumoniae KP05 506 from India (V3); experiment: MIC assay, CAMHB with alginate oligomer, no visible growth; type: cell-based; conditions: for MIC: Klebsiella pneumoniae, Table 1, V3 KP05 506, read-out: MIC
[12] = tested on: V19 non MDR Acinetobacter baumannii; experiment: MIC assay, CAMHB with M-block alginate oligomer, no visible growth; type: cell-based; conditions: Table 7, V19 non MDR Acin. baum
Description: as §2

[13] = Acinetobacter lwoffii, OligoCF-5/20 0G, read-out: MIC
[14] = Escherichia coli, OligoCF-5/20 0G, read-out: MIC
[15] = Burkholderia cepacia, Table 5, V23 MDR Burk cep, OligoCF-5/20 0G, read-out: MIC
[16] = Table 5, V23 MDR Burk cep, OligoCF-5/20 +10% G
[17] = Table 6, V23, Experiment 1 (18-03-10), OligoCF-5/20 +10% G
[18] = Table 6, V23, Experiment 3 (19-03-10), OligoCF-5/20 +10% G
[19] = Table 9, G-block (OligoCF-5/20) 0%
[20] = Table 9, G-block (OligoCF-5/20) 2%
[21] = Table 9, G-block (OligoCF-5/20) 6%
[22] = Table 9, G-block (OligoCF-5/20) 10%

Compound: CC[C@H]1OC(=O)[C@H](C)[C@@H](O[C@H]2C[C@@](C)(OC)[C@@H](O)[C@H](C)O2)[C@H](C)[C@@H](O[C@@H]2O[C@H](C)C[C@H](N(C)C)[C@H]2O)[C@](C)(O)C[C@@H](C)C(=O)[C@H](C)[C@@H](O)[C@]1(C)O [Erythromycin]
- MIC ([1]; ATCC15692, Table 4, PA01 non MDR, OligoCF-5/20 0G): 128 µg/mL (≈ 174 µM)
- MIC ([1]; ATCC15692, Table 4, PA01 non MDR, OligoCF-5/20 +2% G): 64 µg/mL (≈ 87.2 µM)
- MIC ([1]; ATCC15692, Table 4, PA01 non MDR, OligoCF-5/20 +6% G): 64 µg/mL (≈ 87.2 µM)
- MIC ([1]; ATCC15692, Table 4, PA01 non MDR, OligoCF-5/20 +10% G): 16 µg/mL (≈ 21.8 µM)
- MIC ([2]; OligoCF-5/20 0G): 4 µg/mL (≈ 5.45 µM)
- MIC ([2]; OligoCF-5/20 +2% G): 4 µg/mL (≈ 5.45 µM)
- MIC ([2]; OligoCF-5/20 +6% G): ≤ 1 µg/mL
- MIC ([2]; OligoCF-5/20 +10% G): ≤ 1 µg/mL
- MIC ([3]; Table 4, V4 MDR (Libya), OligoCF-5/20 0G): 8 µg/mL (≈ 10.9 µM)
- MIC ([3]; Table 4, V4 MDR (Libya), OligoCF-5/20 +2% G): 2 µg/mL (≈ 2.73 µM)
- MIC ([3]; Table 4, V4 MDR (Libya), OligoCF-5/20 +6% G): ≤ 1 µg/mL
- MIC ([3]; Table 4, V4 MDR (Libya), OligoCF-5/20 +10% G): ≤ 1 µg/mL
- MIC [4, 13]: < 0.5 µg/mL
- MIC ([4]; OligoCF-5/20 +2% G): <0.5 µg/mL
- MIC ([4]; OligoCF-5/20 +6% G): <0.5 µg/mL
- MIC ([4]; OligoCF-5/20 +10% G): <0.5 µg/mL
- MIC [5, 14]: 512 µg/mL (≈ 698 µM)
- MIC [6, 15]: 512 µg/mL (≈ 698 µM)
- MIC ([6]; Burkholderia cepacia, Table 6, V23, Experiment 1 (18-03-10), OligoCF-5/20 0G, read-out: MIC): 512 µg/mL (≈ 698 µM)
- MIC ([6]; Burkholderia cepacia, Table 6, V23, Experiment 3 (19-03-10), OligoCF-5/20 0G, read-out: MIC): > 512 µg/mL
- MIC [6, 16]: 16^† μg/ml
- MIC [6, 17]: 64^† μg/ml
- MIC ([6]; Table 6, V23, Experiment 2 (18-03-10), OligoCF-5/20 +6% G): 64^† μg/ml
- MIC ([6]; Table 6, V23, Experiment 2 (18-03-10), OligoCF-5/20 +10% G): 64^† μg/ml
- MIC ([6]; Table 6, V23, Experiment 3 (19-03-10), OligoCF-5/20 +6% G): 64^† μg/ml
- MIC [6, 18]: 16^† μg/ml
- MIC ([7]; Pseudomonas aeruginosa, G-block (OligoCF-5/20) 0%): > 512 µg/mL
- MIC ([7]; Pseudomonas aeruginosa, G-block (OligoCF-5/20) 2%): > 512 µg/mL
- MIC ([7]; G-block (OligoCF-5/20) 10%): 512 µg/mL (≈ 698 µM)
- MIC [8, 19]: < 2 µg/mL
- MIC [8, 20]: < 2 µg/mL
- MIC [8, 21]: < 2 µg/mL
- MIC [8, 22]: < 2 µg/mL
- MIC [9, 19]: 8 µg/mL (≈ 10.9 µM)
- MIC [9, 20]: 2 µg/mL (≈ 2.73 µM)
- MIC [9, 21]: 1 µg/mL (≈ 1.36 µM)
- MIC [9, 22]: < 1 µg/mL
- MIC [10, 19]: 1 µg/mL (≈ 1.36 µM)
- MIC [10, 20]: < 1 µg/mL
- MIC [10, 21]: < 1 µg/mL
- MIC [10, 22]: < 1 µg/mL

Compound: C[C@@H](O)[C@H]1C(=O)N2C(C(=O)O)=C(S[C@@H]3CN[C@H](C(=O)N(C)C)C3)[C@H](C)[C@H]12 [Meropenem]
- MIC ([1]; ATCC15692, Table 1, PA01, OligoCF-5/20 0G): 2 µg/mL (≈ 5.22 µM)
- MIC ([1]; ATCC15692, Table 1, PA01, OligoCF-5/20 +2% G): 2 µg/mL (≈ 5.22 µM)
- MIC ([1]; ATCC15692, Table 1, PA01, OligoCF-5/20 +6% G): < 1 µg/mL
- MIC ([1]; ATCC15692, Table 1, PA01, OligoCF-5/20 +10% G): < 1 µg/mL
- effectiveness in conjunction with alginate oligomers ([11]; Example 1, KP05 506): inconclusive
- MIC ([11]; OligoCF-5/20 0G): 64 µg/mL (≈ 167 µM)
- MIC ([11]; OligoCF-5/20 +2% G): 64 µg/mL (≈ 167 µM)
- MIC ([3]; Table 1, V4 ACB (Libya), OligoCF-5/20 0G): < 4 µg/mL
- MIC ([3]; Table 1, V4 ACB (Libya), OligoCF-5/20 +2% G): < 4 µg/mL
- MIC ([3]; Table 1, V4 ACB (Libya), OligoCF-5/20 +6% G): < 4 µg/mL
- MIC ([3]; Table 1, V4 ACB (Libya), OligoCF-5/20 +10% G): < 4 µg/mL
- MIC ([3]; Table 7, V4 MDR Acin baum (Libya), M-block oligomer 0M): 16 µg/mL (≈ 41.7 µM)
- MIC ([3]; Table 7, V4 MDR Acin baum (Libya), M-block oligomer +2% M): 32 µg/mL (≈ 83.4 µM)
- MIC ([3]; Table 7, V4 MDR Acin baum (Libya), M-block oligomer +6% M): 16 µg/mL (≈ 41.7 µM)
- MIC ([3]; Table 7, V4 MDR Acin baum (Libya), M-block oligomer +10% M): 8 µg/mL (≈ 20.9 µM)
- MIC [4, 13]: 1 µg/mL (≈ 2.61 µM)
- MIC ([4]; OligoCF-5/20 +2% G): 0.5^† μg/ml
- MIC ([4]; OligoCF-5/20 +6% G): <0.25^† μg/ml
- MIC ([4]; OligoCF-5/20 +10% G): <0.25^† μg/ml
- MIC [5, 14]: < 0.25 µg/mL
- MIC ([5]; OligoCF-5/20 +2% G): <0.25 µg/mL
- MIC ([5]; OligoCF-5/20 +6% G): <0.25 µg/mL
- MIC ([5]; OligoCF-5/20 +10% G): <0.25 µg/mL
- MIC [6, 15]: 64 µg/mL (≈ 167 µM)
- MIC ([6]; Table 5, V23 MDR Burk cep, OligoCF-5/20 +2% G): 64 µg/mL (≈ 167 µM)
- MIC ([6]; Table 5, V23 MDR Burk cep, OligoCF-5/20 +6% G): 32^† μg/ml
- MIC [6, 16]: 8^† μg/ml
- MIC ([6]; Table 6, V23, Experiment 1 (18-03-10), OligoCF-5/20 +6% G): 64^† μg/ml
- MIC [6, 17]: 64^† μg/ml
- MIC ([6]; Table 6, V23, Experiment 3 (19-03-10), OligoCF-5/20 +2% G): 64^† μg/ml
- MIC [6, 18]: 64^† μg/ml
- MIC ([12]; M-block oligomer 0M): 8 µg/mL (≈ 20.9 µM)
- MIC ([12]; M-block oligomer +2% M): 4 µg/mL (≈ 10.4 µM)
- MIC ([12]; M-block oligomer +6% M): 2 µg/mL (≈ 5.22 µM)
- MIC ([12]; M-block oligomer +10% M): 1 µg/mL (≈ 2.61 µM)
